Legend:
[1] = target: Mushroom tyrosinase; assay: DOPA-chrome assay with L-DOPA ([…]), mushroom tyrosinase […] U/mL, absorbance at […] nm; reference inhibitor measured by the authors; assay type: biochemical; details: read-out: Anti-tyrosinase activity (IC50)
[2] = target: Mushroom tyrosinase; assay: DOPA-chrome assay with L-DOPA ([…]), mushroom tyrosinase […] U/mL, absorbance at […] nm; assay type: biochemical; details: read-out: Anti-tyrosinase activity (IC50)

Row | Structure (SMILES) | IC50 [1] | IC50 [2]
1 | OC[C@H]1O[C@@H](Oc2ccc(O)cc2)[C@H](O)[C@@H](O)[C@@H]1O [Arbutin] | 168 ± 7 µM | –
2 | OC[C@H]1O[C@@H](Oc2c3cc(O)cc2Cc2cc(O)cc(c2O[C@@H]2O[C@H](CO)[C@@H](O)[C@H](O)[C@H]2O)Cc2cc(O)cc(c2O[C@@H]2O[C@H](CO)[C@@H](O)[C@H](O)[C@H]2O)Cc2cc(O)cc(c2O[C@@H]2O[C@H](CO)[C@@H](O)[C@H](O)[C@H]2O)C3)[C@H](O)[C@@H](O)[C@@H]1O [compound 4] | – | 26 ± 1 µM

Source: PMC7667534, “Calixarbutin: A Novel Calixarene-based Potential Water-soluble Anti-tyrosinase Agent with High Anti-melanoma Activity” (Iranian Journal of Pharmaceutical Research : IJPR, 2020)
